Experiment [1] concerns atherosclerotic plaques. Nature of the experiment: Plaque homing of FAM-labeled peptides in ApoE null mice on high-fat diet. As to conditions: 100 μg FAM-labeled peptide IV, one hour.
From the text: One hour later, the mice can be perfused through the heart under anesthesia, and tissues were collected. Accumulation of FAM-labeled peptides can be visualized with UV excitation. Atherosclerotic aortas can be sectioned at the aortic root level, and examined by confocal microscopy. […] CD31 staining can be used to visualize the endothelium over the plaque.
One hour later, the mice were perfused through the heart under anesthesia, and tissues were collected. Accumulation of FAM-labeled peptides was visualized with UV excitation. Atherosclerotic aortas were sectioned at the aortic root level, and examined by confocal microscopy. […] CD31 staining was used to visualize the endothelium over the plaque.
For experiment [2], the target named is T1, p32 protein (Homo sapiens, UniProt Q07021).
T1 construct: 6xHis; host or cells: Rosetta-gami-2 cells (Novagen); an E. coli strain by own knowledge
T1 sequence (Q07021 74-282): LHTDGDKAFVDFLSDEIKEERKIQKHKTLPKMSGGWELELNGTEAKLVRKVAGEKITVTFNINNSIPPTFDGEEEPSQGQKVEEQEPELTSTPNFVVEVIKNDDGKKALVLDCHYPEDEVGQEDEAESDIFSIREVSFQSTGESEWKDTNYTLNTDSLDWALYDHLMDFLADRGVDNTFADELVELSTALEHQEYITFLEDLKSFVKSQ
Nature of the experiment: Fluorescence polarization assay: displacement of FAM-TT1 from p32 (HTS, dose response, unlabeled peptide competition). Type of experiment: binding. As to conditions: for dose-dependent inhibition of FAM-TT1 binding to p32: 8.25 μM to 100 μM; for inhibition at 25 µM: high-throughput screen hits, inhibition of TT1-p32 interaction, library compounds 25 μM (Table 1), b410 says 100 μM; for inhibition at 100 µM: highest concentration used, read-out: inhibition of FAM-TT1 binding to p32 in FP assay. As to the method:
Fluorescence polarization (FP)-based assay was used for solution-based screening of compound libraries for p32 binding compounds. […] In FP assay, peptide conjugated with a fluorescent label (fluorescein-AM, FAM) is excited with polarized light. […] 6×-His-Tagged p^32 was expressed in Rosetta-gami-2 cells (Novagen). The protein was purified by IMAC using HIS-select resin (Sigma) with an imidizole gradient from 20-300 mM and eluted fractions were analyzed on analytical SDS-PAGE. […] Fluorescence polarization is given as milli-polarization (mP) value, which is obtained from equation (1):
mP=1000*(S−P)/(S+P), (Eq. 1)
(§1) The assay was initially set up in 20 μl well volume in 384 well plate (Corning Life Sciences), and measurements were carried out using PheraStar FS plate reader (BMG LABTECH, Ortenberg, Germany) in quadruplicate. Peptide and protein stock solutions were diluted to desired concentration with assay buffer (50 mM BIS-TRIS pH 7.4, 0.05% Tween20, 1 mM DTT). FAM-labeled peptides were protected from light during the experiment to avoid photobleaching. Optimal concentration of fluorescein (FAM) labeled-peptides for the assay was determined by measuring the limit of detection (LOD), signal-to-background ratio (S/B), and stability of mP value over series of peptide concentrations. In the binding assay, the concentration of FAM-peptide was kept constant, and the FP was measured over the range of target protein concentrations. The peptide dissociation constant (KD) was obtained by fitting the binding curve into Michaelis-Menten kinetics in GraphPad Prism-software (GraphPad Software, Inc., CA, USA).
FAM-TT-1 and p32 solutions are prepared just before experiment, and stored on ice during the screen; the peptide is shielded from light. • 1. […] Dispense 1.5 μL of assay buffer (50 mM BIS-TRIS pH 7.4, 0.05% Tween 20, 1 mM DTT) into columns 1-4 • 3. […] Dispense 37.5 nL of compounds (2 mM) into columns 5-44 • 5. Spin plate • 6. Incubate 20 min • 7. Dispense 1.5 μL FAM-TT-1 peptide (20 nM) into all columns • 8. Shake plate and spin plate • 9. Incubate 25 min • 10. Read plate on PheraStar FS
Chemical library of ˜50,000 compounds from ChemBridge (San Diego, Calif.) was screened in High-Throughput Screening Facility at Conrad Prebys Center for Chemical Genomics (Sanford-Burnham Medical Research Institute, La Jolla, Calif.). […] Peptide and protein were diluted immediately prior to screening, kept on ice during screening, and FAM-peptide was protected from light throughout the experiment. […]
Background: Fluorescence polarisation rises when a labelled molecule tumbles more slowly, as on binding a larger partner.

The target of experiment [3] is T2, b1b2 domain of NRP-1 (Homo sapiens, UniProt O14786).
T2 sequence (O14786 273-586 limits assumed): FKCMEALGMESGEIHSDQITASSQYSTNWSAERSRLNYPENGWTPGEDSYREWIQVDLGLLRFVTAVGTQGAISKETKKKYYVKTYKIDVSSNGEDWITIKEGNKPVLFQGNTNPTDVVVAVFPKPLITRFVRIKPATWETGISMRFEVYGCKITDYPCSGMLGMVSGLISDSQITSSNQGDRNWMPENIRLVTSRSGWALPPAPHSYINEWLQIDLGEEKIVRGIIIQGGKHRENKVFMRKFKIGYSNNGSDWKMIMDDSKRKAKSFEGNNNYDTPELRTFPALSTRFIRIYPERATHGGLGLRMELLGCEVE
Nature of the experiment: Fluorescence polarization displacement of FAM-RPARPAR from NRP-1. As to conditions: for effect on RPARPAR peptide binding to NRP-1: specificity assay, up to 100 μM. Type of experiment: binding. As to the method:
Results of the high-throughput screen were confirmed in dose response tests. 8.25 μM to 100 μM dilutions of the compounds that displaced FAM-peptide from p32 were used in competition with FAM-peptide as described in previous section. Specificity of the hit compounds was verified by examining their binding to a different protein, b1b2 domain of NRP-1 (Vander Kooi et al., Proc. Natl. Acad. Sci. U.S.A., 10.1073/pnas.0700043104). Experimental method for NRP-1 b1b2 was developed and validated similarly to p32, using FAM-RPARPAR peptide as a known peptide ligand for NRP-1. The displacement of FAM-RPARPAR from NRP-1 protein by the hit compounds was studied in 384-well format, as described above.

The target in experiment [4] is T1, p32 protein. Nature of the experiment: TT1 phage binding inhibition assay (ELISA-type). As to conditions: 100 μM compound. As to the method: The binding of individual phage to p32 was verified using ELISA-type of phage binding assay. 96-well plates (Corning Life Sciences, Tewksbury, Mass., USA) were coated with 100 μL of 5 μg/mL p32 in PBS at 4° C. overnight, washed 3 times with 200 μL of PBST (PBS+0.05% Tween-20), blocked with 200 μL of 0.5% bovine serum albumin (BSA) in PBST for 1 h at 37° C., and washed 3 times with PBST. Phages (1.11*10^8 pfu in 100 μL PBST) were added to p32-coated/BSA-blocked wells, the plate was incubated at 4° C. overnight, and washed 3 times with PBST. Subsequently, the plates were incubated with 100 μL in-house prepared polyclonal rabbit anti-T7 antibody diluted 1:1000 in PBST for 1 h at 4° C., and washed 3 times with washing buffer. Horseradish peroxidase (HRP)-labeled anti-rabbit IgG (Sigma-Aldrich) was diluted 1:1000 in PBS, and 100 μL was added to the wells, followed by 1 h incubation at 4° C. and washing 3 times. Next, 100 μL of OPD silver and gold substrate (Sigma-Aldrich) was added to the wells and incubated at room temperature until visible color was observed (<30 min). The reaction was stopped by adding 50 μL of 1M H2SO4, and the plate was read at 492 nm (Varioskan Flash, Thermo Scientific, Waltham, Mass., USA).
The ability to inhibit TT1-phage binding to p32 protein was used as a secondary assay to verify the hit compounds. The competition assay was based on the phage binding assay described above with minor modifications. ELISA plates were coated with 2.5 μg/mL p32, incubated with phages (1.11*10^8 pfu in 100 μL PBST) and 100 μM hit compounds at 4° C. overnight, and followed by antibody incubation and chromogenic reaction. Negative controls included DMSO at concentration it was used to dissolve the hit compounds.

The target in experiment [5] is T1, p32 protein. Nature of the experiment: NMR 1D 1H-aliph spectra of p32 with compounds. The following applies: 5 μM p32; compounds 100 and 500 μM; TT1 70 μM. The experiment is classed as binding. As to the method:
FIGS. 3A and 3B are graphs showing NMR based evaluation of binding of compounds 4014008 and 7933989 to P32 protein. The ID ^1H-aliph spectra of 5 μM P32 in the absence (bottom) and presence of compounds #4014008 (A) and #7933989 (B) at 100 μM (second from bottom) and 500 μM (second from top) were collected. As a control, the spectrum of p32 in the presence of the known peptide binder, TT1 at 70 μM, was also collected (top).
All the NMR experiments were carried out on a Bruker Avance 700 spectrometer equipped with a TCI cryoprobe at T=293 K. For structure determinations, the peptide concentration was 100 μM in the NMR buffer in presence of 150 μM of ZnCl2. One-dimensional (1D) 1H spectra were acquired with a spectral width of 8417.51 Hz, relaxation delay 1.0 s, 8 k data points for acquisition and 16 k for transformation.

In experiment [6] the target is T3, b1b2 domain of neuropilin-1 (NRP-1) (Homo sapiens, UniProt O14786).
T3 sequence (O14786 273-586 limits assumed): T2 sequence (O14786 273-586 limits assumed)
Nature of the experiment: Fluorescence polarization binding of FAM-peptide to NRP-1. As to the method:
FIG. 8 is a graph showing specificity of TT1 binding. Specificity of TT1 was further evaluated by measuring the binding of FAM-TT1 to recombinant non-target protein, b1b2 domain of neuropilin-1 (NRP-1). The binding was studied by fluorescence polarization. […] Each data point presents average±S.D., n=4-6.
as §1, with “USA). […]” for “USA).”

Entries after “also recorded” stand apart in the source; their conditions may differ. Bridges are numbered along the chain shown (N, C = ends). Where no end group is shown, it is not given here. FAM = 5(6)-carboxyfluorescein; Ahx = NCCCCCC(=O)O

The text below walks through data of patent US20200268832A1, “COMPOSITIONS FOR DELIVERY TO AND TREATMENT OF ATHEROSCLEROTIC PLAQUES” (Sanford Burnham Prebys Medical Discovery Institute, priority 2015, published 2020).

With “FAM-LyP-1: FAM-labeled LyP-1 peptide (CGNKRTRGC; disulfide 1-9 (inferred); not fully specified (N-terminus))”, in experiment [1], the “homing to atherosclerotic plaques” value was “signal was seen inside plaques”.
As for `Nc1nccc(N2CCC(C3CCN(Cc4cccnc4)CC3)C2)n1` (centres unmarked) [Compound 54778828, 4-{3-[1-(3-pyridinylmethyl)-4-piperidinyl]-1-pyrrolidinyl}-2-pyrimidinami], in experiment [2], the “dose-dependent inhibition of FAM-TT1 binding to p32” value is given as “only marginally active” and the inhibition at 25 µM was found to be 29.4%.
For `Cc1ccc(-c2cnc(N)c(N3CCC(O)C3)n2)c(-n2cccn2)c1` (centres unmarked) [Compound 88361068, 1-{3-amino-6-[4-methyl-2-(1H-pyrazol-1-yl)phenyl]pryazin-2-yl}pyrrolidin-3-], the “effect on RPARPAR peptide binding to NRP-1” value (“effect” below) in experiment [3] is recorded as “no effect”. The inhibition at 100 µM was 20% in experiment [4] and 65 to 75% in experiment [2]. For the same molecule, in experiment [2], at 25 µM the inhibition was 30.8%.
Regarding `CC1(C)CN=C(NCCNC2=NCC(C)(C)S2)S1` [Compound 7933989], the “effect” value in experiment [3] is listed as “no effect”. Further, in experiment [5], the “perturbations in 1D 1H-aliphatic spectra of p32” value is “caused similar perturbations; also recorded: shift in the peak at around −0.3 ppm”. Besides, the inhibition at 100 µM in experiment [4] came out at 75%; in experiment [2], 80%. This molecule had an inhibition at 25 µM in experiment [2] of 40.5%.
`CN1CCc2onc(-c3ccc(F)c(F)c3)c2C1` [Compound 91984046] registered an inhibition at 100 µM in experiment [4] of 20%. Besides, in experiment [2], the inhibition at 25 µM was 22.5% and the inhibition at 100 µM was in the range of 65 to 75%.
For the molecule `Cc1c(O)ccc2c(C(F)(F)F)cc(=O)oc12` [Compound 6367577, 7-hydroxy-8-methyl-4-(trifluoromethyl)-2H-chromen-2-one], the “FP level in the presence of compound” value in experiment [3] (highest concentration) was “negative value”. In experiment [2], the “dose-dependent inhibition of FAM-TT1 binding to p32” value was “less effective than the other active compounds” and testing at 25 µM gave an inhibition of 39.5%.
For the molecule `Cc1nc2nc3c(cn2n1)C(=O)CC(c1cccs1)C3` (centres unmarked) [Compound 9132086, 2-methyl-6-(2-thienyl)-6,7-dihydro[1,2,4]triazolo [5,1-b]quinazolin-8(5H)-one], the “effect” value in experiment [3] is given as “no effect”. The inhibition at 100 µM was 20% in experiment [4] and 65 to 75% in experiment [2]. The same molecule displayed an inhibition at 25 µM in experiment [2] of 20.7%.
For the molecule “FAM-TT1: FAM-labeled TT1 peptide, 5(6)-carboxyfluorescein with 6-aminohexanoic acid spacer ({FAM-Ahx}-CKRGARSTC; disulfide 1-9 (inferred))”, the “homing to atherosclerotic plaques” value in experiment [1] is listed as “signal was seen inside plaques”. Further, the “binding to b1b2 domain of NRP-1” value in experiment [6] is given as “did not show binding”.
For RPARPAR [reference compound], the “binding to b1b2 domain of NRP-1” value in experiment [6] was “showed strong affinity”. Further, the “inhibition (dislocation) of FAM-TT1 binding to p32 by unlabeled peptide” value in experiment [2] (unlabeled peptides titrated up to 100 μM) is “not and did not dislocate FAM-TT1”.

As a reminder, the inhibition is the drop in the measured response relative to a control, in per cent.
